Measured values: patent publication US11766470B2, “Manufacture, formulation and dosing of apraglutide” (VectivBio AG, priority 2020, dated 2023)
Square brackets hold non-standard residues; d marks the D form. Peptide text beside a SMILES is read from it. ξ: configuration not given here. Ile(3ξ) = CCC(C)[C@H](N)C(=O)O; Thr(3ξ) = CC(O)[C@H](N)C(=O)O; Nle = CCCC[C@H](N)C(=O)O

Assays:
[1] = Solubility, pH and isoelectric point of the peptide; format: physicochemical; details: purified water
[2] = Plasma concentration of apraglutide (LC-MS/MS) in Phase 2 metabolic balance trial (Example 6); format: in vivo, human; details: 5 mg SC once weekly, SBS patients
Method: Blood samples for analysis of the plasma concentration of apraglutide and plasma concentration of fasting L-citrulline, a marker of enterocyte mass, were collected at baseline, during first and second injection (pre-dose and at sequential timepoints), four days after first injection and at the end of treatment. Blood sampling for apraglutide pharmacokinetics was also performed after the fourth and last injection covering 96 hours. […] Blood samples for anti-apraglutide antibodies were collected at baseline, at the end of treatment and at the 4-6 weeks follow-up visit. All eight patients tested negative for anti-apraglutide antibodies at baseline.
Apraglutide and L-citrulline were quantified using a validated LC-MS-based method. For a apraglutide, the analytical method used solid-phase extraction purification of the intact apraglutide molecule and its internal standard. The compounds were identified and quantified using reversed-phase HPLC with MS/MS detection using an AB Sciex API 5000 quadrupole mass spectrometer. For samples below the limit of quantification of 5.00 ng/mL, compounds were identified and quantified using reversed-phase UHPLC with MS/MS detection using an AB Sciex API 5500 quadrupole mass spectrometer. For L-citrulline, the analytical method used protein precipitation extraction of L-citrulline and its internal standard. The compounds were identified and quantified using Hilic HPLC with MS/MS detection using an AB Sciex API 5000 quadrupole mass spectrometer.

hGLP-2 receptor = molecular target: T1, hGLP-2 receptor (Homo sapiens, UniProt O95838); assay: hGLP-2 receptor transcriptional reporter gene assay (cAMP-responsive luciferase) in HEK-293 cells (Example 2); format: cell-based
T1 construct: expressed in transfected cells; host or cells: HEK-293 (human embryonic kidney), transient transfection
T1 sequence (O95838 1-553): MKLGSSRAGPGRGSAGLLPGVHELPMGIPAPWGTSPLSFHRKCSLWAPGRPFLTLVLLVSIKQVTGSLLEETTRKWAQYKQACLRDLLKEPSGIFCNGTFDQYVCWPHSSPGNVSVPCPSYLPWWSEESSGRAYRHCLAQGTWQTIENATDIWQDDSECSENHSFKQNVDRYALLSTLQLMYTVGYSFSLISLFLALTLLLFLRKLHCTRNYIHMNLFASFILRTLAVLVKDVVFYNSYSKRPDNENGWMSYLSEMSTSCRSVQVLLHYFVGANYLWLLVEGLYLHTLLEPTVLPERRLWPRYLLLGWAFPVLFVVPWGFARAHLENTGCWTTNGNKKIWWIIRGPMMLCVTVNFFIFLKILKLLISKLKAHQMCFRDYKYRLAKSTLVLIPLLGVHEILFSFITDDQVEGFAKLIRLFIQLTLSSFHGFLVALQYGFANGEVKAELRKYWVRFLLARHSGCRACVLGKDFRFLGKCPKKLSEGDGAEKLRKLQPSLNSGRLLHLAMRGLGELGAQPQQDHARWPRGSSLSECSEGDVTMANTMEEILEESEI
Text: To determine activities of GLP-2 agonists of the present disclosure on the hGLP-2 receptor, a transcriptional reporter gene assay is used. Two constructs are transiently transfected into a human embryonic kidney cell line (HEK-293): an hGLP-2 receptor expression DNA construct and a reporter DNA construct containing intracellular cAMP-responsive promoter elements regulating expression of firefly luciferase. (See for example HimmLer et al., J. Recept. Res., (1993), 13, […] for further guidance on this assay.)
Cells are exposed for 5 hours to serial dilutions of compounds diluted half-log per dose. After exposure to compounds, cells are lysed, luciferase activity is determined, and compound efficacies and EC50 values are determined by non-linear regression analysis. hGLP-2, a naturally occurring 33-amino acid peptide ligand, is used as an internal control in each experiment.

Structure (SMILES): CCCC[C@H](NC(=O)[C@H](CCC(=O)O)NC(=O)[C@H](CC(=O)O)NC(=O)[C@H](CO)NC(=O)[C@H](Cc1ccccc1)NC(=O)[C@H](CO)NC(=O)CNC(=O)[C@H](CC(=O)O)NC(=O)CNC(=O)[C@@H](N)Cc1c[nH]cn1)C(=O)N[C@H](Cc1ccccc1)C(=O)N[C@H](C(=O)N[C@H](C(=O)N[C@@H](CC(C)C)C(=O)N[C@@H](CC(=O)O)C(=O)N[C@@H](CC(C)C)C(=O)N[C@@H](CC(C)C)C(=O)N[C@@H](C)C(=O)N[C@@H](C)C(=O)N[C@@H](CCCNC(=N)N)C(=O)N[C@@H](CC(=O)O)C(=O)N[C@@H](Cc1ccccc1)C(=O)N[C@H](C(=O)N[C@@H](CC(N)=O)C(=O)N[C@@H](Cc1c[nH]c2ccccc12)C(=O)N[C@@H](CC(C)C)C(=O)N[C@H](C(=O)N[C@@H](CCC(N)=O)C(=O)N[C@H](C(=O)N[C@@H](CCCCN)C(=O)N[C@H](C(=O)N[C@H](C(=O)N[C@@H](CC(=O)O)C(N)=O)C(C)O)C(C)CC)C(C)O)C(C)CC)C(C)CC)C(C)CC)C(C)O (stereo partly drawn) [apraglutide, L-histidyl-glycyl-L-aspartyl-glycyl-L-seryl-L-phenylalanyl-L-seryl-L-aspartyl-L-glutamyl-L-norleucyl-D-phenylalanyl-L-threonyl-Lisoleucyl-L-leucyl-L-aspartyl-L-leucyl-L-leucyl-L-alanyl-L-alanyl-L-arginyl-L-aspartyl-L-phenylalanyl-L-isoleucyl-L-asparaginyl-Ltryptophanyl-L-leucyl-L-isoleucyl-L-glutaminyl-L-threonyl-L-lysyl-L-isoleucyl-L-threonyl-Laspartic acid amide] (H-HGDGSFSDE[Nle][dF][Thr(3ξ)][Ile(3ξ)]LDLLAARDF[Ile(3ξ)]NWL[Ile(3ξ)]Q[Thr(3ξ)]K[Ile(3ξ)][Thr(3ξ)]D-NH2)
- solubility [1]: > 100 mg/mL
- Mean clearance [2]: 0.9 L/h
- Cmax ([2]; human, plasma, read-out: Maximum mean plasma concentration): 118 ng/mL
- half-life ([2]; human, plasma, read-out: Mean elimination half-life (converted)): 27 h
- Tmax ([2]; human, plasma, read-out: Mean time to maximum concentration): 29.5 h
- Agonist activity, potency and selectivity at the GLP-2 receptor, in words (hGLP-2 receptor): selective, full agonist of the GLP-2 receptor with potency and selectivity comparable to native GLP-2
